# According to patent US20260207535A1, “CRIBLAGE INHIBITEURS USP8” (COMMISSARIAT A L'ENERGIE ATOMIQUE ET AUX ENERGIES …, priority 2022, published 2026):
# Key:
# POMC gene = test: POMC encoding gene expression (quantitative RT-PCR, normalized to HPRT); assay type: cell-based, mouse; details: 10, 20, 30 and 36 μM, 24 hours, vs DMSO
# Method: Each dot represents the amount of POMC encoding transcripts normalized to the amount of transcripts encoding the housekeeping gene HPRT and then compared to the DMSO control condition. Mean of technical triplicates with errors bars.
# ACTH production depends on the activation of the proopiomelanocortin (POMC) gene encoding the ACTH precursor.
# 3.75×10^5 AtT20 cells were seeded on polylysine-coated 6-well culture microplates on 2.4 mL complete medium. After 24 hours, cells were treated with stock compounds to a final DMSO concentration of 0.5%. After 24 hours of treatment, cells were briefly rinsed with 37° C. DPBS (no calcium, no magnesium modification), lysed with the LBP reagent from the NucleoSpin® RNA Plus kit (Macherey-Nagel 740984.50) and then frozen at −70° C. before continuing with the RNA extraction protocol as per manufacturer's instructions. 1 μg RNA was used to synthesize cDNA using the AffinityScript QPCR cDNA Synthesis Kit (Agilent #600559). qPCR reaction was performed using the primers against the mouse POMC gene (5′-CCTCCTGCTTCAGACCTCCATAGAT-3′ and 5′-GTCTCCAGAGAGGTCGAGTTT). […] Detection was done using the Brilliant II SYBR® Green QPCR Master Mix (Agilent #600828), and readings were done using a Stratagene Mx3005P equipment.
# Papain = biological target: T1, Papain (Carica papaya, UniProt P00784); test: Papain inhibition (casein digestion, SDS-PAGE); assay type: biochemical
# T1 construct: purchased Sigma P4762
# T1 sequence (P00784 134-345): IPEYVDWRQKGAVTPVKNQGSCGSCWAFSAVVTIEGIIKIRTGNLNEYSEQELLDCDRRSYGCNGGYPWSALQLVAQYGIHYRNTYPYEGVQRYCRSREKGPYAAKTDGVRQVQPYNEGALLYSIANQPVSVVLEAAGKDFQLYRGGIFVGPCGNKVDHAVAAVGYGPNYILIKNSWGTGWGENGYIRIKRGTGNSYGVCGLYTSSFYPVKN
# Method: Papain (Sigma ref. P4762) and casein (Merck ref. VM874644) were dissolved in 40 mM TrisHCl buffers pH6.8 and pH9.5 respectively. Casein at the concentration of 0.5 μg/μl was incubated with the inhibitory compounds at efficient inhibitory concentration or with DMSO for 15 min and then digested by Papain (2.5 ng/μl) at RT over 45 min. The digestion samples were collected at time: 5, 15, 30 and 45 min. To inactivate the protease Laemmli 2× was added and each sample was heated at 95° C. for 5 min then analyzed with SDS-PAGE and stained with Coomassie Blue.
# USP8CD = biological target: T2, USP8CD (Homo sapiens, UniProt P40818); test: Reversibility (dilution / gel filtration) assay of USP8 inhibition; assay type: biochemical; details: USP8CD 60 nM, activity before and after gel column filtration
# T2 construct: an in-house purified catalytic domain of USP8 (USP8CD) was used at a concentration of 80 nM; made in house
# T2 sequence (P40818 777-1109 limits assumed): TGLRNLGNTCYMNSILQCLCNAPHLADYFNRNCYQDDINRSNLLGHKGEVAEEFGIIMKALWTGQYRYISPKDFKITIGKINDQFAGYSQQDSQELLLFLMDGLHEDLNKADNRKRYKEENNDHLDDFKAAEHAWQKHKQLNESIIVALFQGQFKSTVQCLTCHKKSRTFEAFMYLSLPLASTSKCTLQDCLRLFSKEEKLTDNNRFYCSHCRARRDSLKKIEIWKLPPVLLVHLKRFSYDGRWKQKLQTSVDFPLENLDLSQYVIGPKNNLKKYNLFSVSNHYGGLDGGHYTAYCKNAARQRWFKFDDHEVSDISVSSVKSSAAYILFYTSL
# Method: DUB activity relies on a conserved catalytic cysteine residue which is particularly sensitive to irreversible oxidation by reactive oxygen species (ROS) (Lee et al., 2013). […] In this setup, purified USP8CD was used at a concentration of 60 nM and incubated for 20 min with either the inhibitory compound or with DMSO in buffered conditions. The catalytic activity of each mix was monitored on Ub-Rho substrate (Ubiquigent ref. 60-0117-050) used at a final concentration of 0.1 μM before and after filtration on a gel column (Millipore UFC30GV25). If a catalytic activity is detected after column filtration, the compound is a reversible inhibitor.
# Description for AtT-20 cells: The AtT-20 cells viability was monitored in the conditions used to follow ACTH secretion. The viability of treated cells was concomitantly evaluated using a Cell Viability Reagent (monitoring of the cells' reducing capacity) (PrestoBlue® assay, Molecular Probes) with the aim to determine non-toxic doses of cell treatment.
# After the collection of the supernatant sample for the ACTH assay in the previous step, cells were supplemented with the PrestoBlue™ cell viability reagent (Invitrogen™ A13261) at 10% final volume, and re-incubated at 37° C. for 30 minutes. Fluorescence was then read with a FLUOstar OPTIMA microplate reader.
compound,measurement,setting,value
"Cc1cc(C(C#N)c2ccc(Cl)cc2)c(Cl)cc1NC(=O)c1cc(I)cc(I)c1O (centres unmarked) [Closantel, reference compound]",POMC mRNA species (FIG. 8),POMC gene,strong decrease
same,activity against papain,Papain,not active
same,reversibility of USP8 inhibition,USP8CD,reversible
same,"dose-dependent viability assay, in words (FIG. 7)",AtT-20 cells,less cytotoxic than niclosamide
same,AtT-20 cell viability (PrestoBlue assay) % of control (DMSO) at 25 μM Mean (SD),"AtT-20 cells; mouse, 24 h, 25 μM",104.8 (16.08) %
